Data as given in US5518735A, “Meta-substituted phenylalanine derivatives” (priority 1990, dated 1996).
Where a name gives a salt, the structure may show the parent alone. Values belong to the compound of their own block, whether it stands above or below them.

Assays:
[1] = target: T1, plasmin (Homo sapiens, UniProt P00747); experiment: Inhibition of plasmin (Ki); type: biochemical; details: Table 26
T1 construct: trypsin and the related enzymes thrombin, plasmin, factor Xa, tPA

[2] = target: tPA (Homo sapiens, UniProt P00750); experiment: Inhibition of tPA (Ki); type: biochemical; details: Table 26
Sequence of tPA (P00750 36-562): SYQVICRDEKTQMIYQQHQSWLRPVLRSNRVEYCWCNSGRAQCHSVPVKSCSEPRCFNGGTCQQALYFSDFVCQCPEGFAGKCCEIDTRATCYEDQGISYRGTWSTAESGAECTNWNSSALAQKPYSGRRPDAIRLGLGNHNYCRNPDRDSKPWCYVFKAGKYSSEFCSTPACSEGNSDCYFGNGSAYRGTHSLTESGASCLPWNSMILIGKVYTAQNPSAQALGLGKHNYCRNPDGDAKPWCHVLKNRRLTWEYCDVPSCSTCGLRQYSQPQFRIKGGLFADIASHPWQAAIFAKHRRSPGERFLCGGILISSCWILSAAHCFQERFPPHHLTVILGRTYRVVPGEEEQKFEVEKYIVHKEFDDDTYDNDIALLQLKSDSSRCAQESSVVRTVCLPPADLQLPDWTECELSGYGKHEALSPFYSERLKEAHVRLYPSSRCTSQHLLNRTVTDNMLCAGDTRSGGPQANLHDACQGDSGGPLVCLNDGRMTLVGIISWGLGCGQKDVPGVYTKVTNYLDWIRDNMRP

[3] = target: T2, factor XIIa (Homo sapiens, UniProt P00748); experiment: Inhibition of factor XIIa (Ki); type: biochemical; details: Table 26
T2 construct: glandular kallikrein, factor XIIa and plasma kallikrein
T2 sequence (P00748 373-615 limits assumed): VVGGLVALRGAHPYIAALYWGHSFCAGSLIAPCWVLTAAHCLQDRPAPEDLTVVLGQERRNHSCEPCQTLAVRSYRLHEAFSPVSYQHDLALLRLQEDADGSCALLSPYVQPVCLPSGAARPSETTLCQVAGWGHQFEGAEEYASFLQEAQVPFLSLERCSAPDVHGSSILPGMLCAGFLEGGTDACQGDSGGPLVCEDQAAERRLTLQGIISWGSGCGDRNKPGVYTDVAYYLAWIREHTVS

[4] = system: human plasma; details: in vitro, FIG. 4
Method: Various coagulation tests were used in vitro to determine the efficacy of the inhibitors towards the thrombin-induced coagulation of its natural substrate fibrinogen. For that purpose, the thrombin time (TT), the activated partial thromboplastin time (aPTT) and the prothrombin time (PT, Quick value) were determined in human plasma.

[5] = target: thrombin (Bos taurus, UniProt P00735); experiment: Inhibition of thrombin (dissociation constant Ki); type: biochemical
[6] = target: factor Xa (Bos taurus, UniProt P00743); experiment: Inhibition of factor Xa (dissociation constant Ki); type: biochemical; details: Tables 19-25; read-out: Ki, Factor Xa
Sequence of factor Xa (P00743 234-492 limits assumed): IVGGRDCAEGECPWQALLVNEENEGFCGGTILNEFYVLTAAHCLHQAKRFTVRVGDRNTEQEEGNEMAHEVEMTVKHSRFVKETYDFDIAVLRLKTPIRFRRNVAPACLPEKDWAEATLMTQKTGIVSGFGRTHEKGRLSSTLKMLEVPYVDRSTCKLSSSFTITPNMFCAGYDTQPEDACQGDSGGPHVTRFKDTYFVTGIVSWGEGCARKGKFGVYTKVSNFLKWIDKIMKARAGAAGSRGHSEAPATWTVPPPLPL
Sequence of factor Xa (P00743 41-180 partner limits assumed): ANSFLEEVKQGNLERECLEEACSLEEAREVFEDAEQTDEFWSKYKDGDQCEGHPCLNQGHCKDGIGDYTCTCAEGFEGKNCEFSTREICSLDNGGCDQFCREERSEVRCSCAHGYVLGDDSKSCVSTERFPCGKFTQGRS

[7] = target: glandular kallikrein (Sus scrofa, UniProt P00752); experiment: Inhibition of glandular kallikrein (Ki); type: biochemical; details: Table 26; read-out: Ki, Gland. Kallikrein
Sequence of glandular kallikrein (P00752 8-246): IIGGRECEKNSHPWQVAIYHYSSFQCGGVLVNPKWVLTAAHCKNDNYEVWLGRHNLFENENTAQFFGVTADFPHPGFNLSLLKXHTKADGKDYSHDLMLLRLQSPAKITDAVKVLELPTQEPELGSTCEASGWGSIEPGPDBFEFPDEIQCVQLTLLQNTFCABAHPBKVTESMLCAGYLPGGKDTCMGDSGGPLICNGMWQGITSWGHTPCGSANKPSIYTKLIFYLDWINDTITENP

[8] = target: T3, trypsin (Bos taurus, UniProt P00760); experiment: Inhibition of trypsin (Ki); type: biochemical; details: Table 26
T3 sequence (P00760 24-246): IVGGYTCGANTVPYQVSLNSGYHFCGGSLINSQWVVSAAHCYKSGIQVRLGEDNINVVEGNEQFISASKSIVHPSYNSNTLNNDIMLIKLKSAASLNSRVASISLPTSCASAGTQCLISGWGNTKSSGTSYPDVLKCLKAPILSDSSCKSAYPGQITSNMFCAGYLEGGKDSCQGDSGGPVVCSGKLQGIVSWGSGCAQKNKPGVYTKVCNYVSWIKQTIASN

[9] = target: T4, plasma kallikrein (Homo sapiens, UniProt P03952); experiment: Inhibition of plasma kallikrein (Ki); type: biochemical; details: Table 26
T4 construct: glandular kallikrein, factor XIIa and plasma kallikrein
T4 sequence (P03952 391-638 limits assumed, species assumed): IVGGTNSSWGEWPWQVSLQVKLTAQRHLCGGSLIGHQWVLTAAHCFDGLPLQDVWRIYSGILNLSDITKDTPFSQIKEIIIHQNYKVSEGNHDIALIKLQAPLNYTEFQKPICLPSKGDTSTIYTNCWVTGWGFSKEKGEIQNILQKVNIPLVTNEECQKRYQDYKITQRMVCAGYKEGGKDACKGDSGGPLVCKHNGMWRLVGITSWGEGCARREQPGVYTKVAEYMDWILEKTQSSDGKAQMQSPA
T4 sequence (P03952 20-390 partner limits assumed, species assumed): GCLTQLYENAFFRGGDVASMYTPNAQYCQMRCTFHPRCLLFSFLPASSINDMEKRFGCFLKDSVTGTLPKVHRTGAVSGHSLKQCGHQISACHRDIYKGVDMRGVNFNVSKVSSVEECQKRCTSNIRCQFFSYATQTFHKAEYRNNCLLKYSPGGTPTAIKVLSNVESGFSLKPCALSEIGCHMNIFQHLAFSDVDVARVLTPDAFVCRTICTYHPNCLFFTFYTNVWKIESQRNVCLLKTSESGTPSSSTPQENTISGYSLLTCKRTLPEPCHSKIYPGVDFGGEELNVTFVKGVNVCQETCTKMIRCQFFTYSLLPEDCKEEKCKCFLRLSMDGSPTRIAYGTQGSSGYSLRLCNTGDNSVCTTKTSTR

[10] = cited from earlier work
[11] = Plasma concentration in rats after intravenous administration (HPLC); details: for Concentration in plasma: i.v. 1 mg/kg
[12] = Plasma concentration in rats after subcutaneous administration (HPLC); details: rat, plasma, sc, 5 mg/kg
[13] = in vivo; details: mouse
[14] = Plasma concentration in rats after oral administration (HPLC); details: rat, plasma, po, 100 mg/kg
Method: For the pharmacokinetic characterization, the plasma concentration of selected derivatives was determined in rats after intravenous (i.v.), subcutaneous (s.c.) and peroral (p.o.) application according to the following three-step procedure:
1. A physiological NaCl solution of the substance to be tested was submitted to high pressure liquid chromatography (HPLC) in order to determine its characteristic substance-specific retention time with the chosen test conditions.
2. The substance to be tested was diluted in vitro in rat plasma. This solution was also submitted to HPLC to see whether the characteristic peak of the substance once again appeared at the substance-specific retention time.
3. […] Blood samples were taken at time intervals of 15 minutes, from which plasma samples were prepared by centrifugation; those samples were also submitted to HPLC to see whether the characteristic peak of the substance appeared again at the substance-specific retention time.

T1 sequence (P00747 581-810 limits assumed): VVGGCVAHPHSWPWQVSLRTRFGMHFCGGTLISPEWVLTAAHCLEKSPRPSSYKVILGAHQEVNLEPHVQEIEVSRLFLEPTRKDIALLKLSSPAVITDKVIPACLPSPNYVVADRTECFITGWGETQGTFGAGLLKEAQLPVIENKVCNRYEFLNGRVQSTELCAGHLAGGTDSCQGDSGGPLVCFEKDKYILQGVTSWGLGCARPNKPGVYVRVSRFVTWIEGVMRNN
T1 sequence (P00747 97-580 partner limits assumed): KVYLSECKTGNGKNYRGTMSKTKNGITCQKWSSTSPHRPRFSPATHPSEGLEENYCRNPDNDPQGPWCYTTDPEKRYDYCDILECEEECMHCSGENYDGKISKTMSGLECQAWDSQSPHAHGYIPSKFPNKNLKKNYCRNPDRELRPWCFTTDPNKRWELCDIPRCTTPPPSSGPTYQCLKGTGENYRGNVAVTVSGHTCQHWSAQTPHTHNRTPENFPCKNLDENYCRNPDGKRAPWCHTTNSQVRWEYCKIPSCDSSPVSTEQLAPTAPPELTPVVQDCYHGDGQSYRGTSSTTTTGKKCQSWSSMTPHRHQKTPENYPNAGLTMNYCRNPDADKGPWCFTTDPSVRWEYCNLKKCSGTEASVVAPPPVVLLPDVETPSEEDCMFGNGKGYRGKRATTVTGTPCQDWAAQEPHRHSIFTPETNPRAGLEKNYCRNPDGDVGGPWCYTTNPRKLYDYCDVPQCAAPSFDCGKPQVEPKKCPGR

Compound: CC1CCN(C(=O)C(Cc2cccc(C(=N)N)c2)NS(=O)(=O)c2ccc3ccccc3c2)CC1 (racemic) [Compound 34]
Ki [1]: 4 µM
Ki [2]: 460 µM
Ki [3]: > 1 mM
influence on prothrombin time (PT) [4]: obtained by higher inhibitor concentrations

Ki [5]: 1900 nM
Ki [1]: 27 µM
Ki [6]: 500 µM
Ki [2]: > 1000 µM
Ki [7]: 0.076 mM
Ki [8]: 3.4 µM
Ki [9]: > 1000 µM
Ki [3]: < 1 mM
Compound: CC1CCN(C(=O)C(Cc2cccc(CN)c2)NS(=O)(=O)c2ccc3ccccc3c2)CC1 (racemic) [Compound 182, N-α-(2-Naphthylsulfonyl)-3-aminomethyl-(D,L)-phenylalanyl-4-methylpiperidide]

Compound: BOC-D-Phe-Pro-Boro-Arg-C10 H16
absorption after oral administration [10]: absorption after oral administration has so far only been observed

Ki [5]: 400 nM
Ki [1]: 17 µM
Ki [6]: 107 µM
Ki [2]: > 1000 µM
Ki [7]: > 1 mM
Ki [8]: 4.1 µM
Ki [9]: > 1000 µM
Ki [3]: > 1 mM
Compound: N=C(N)Nc1cccc(CC(NS(=O)(=O)c2ccc3ccccc3c2)C(=O)N2CCCCC2)c1 (racemic) [Compound 207, N-α-(2-Naphthylsulfonyl)-3-quanidino-(D,L)-phenylalanine-piperidide hydrochloride]

Ki [5]: 120 nM
Ki [1]: 42 µM
Ki [6]: 96 µM
Ki [2]: 470 µM
Ki [7]: > 1 mM
Ki [8]: 1.2 µM
Ki [9]: 84 µM
Ki [3]: > 1 mM
Compound: CC1CCN(C(=O)C(Cc2cccc(C(=N)N)c2)NS(=O)(=O)c2ccc3ccccc3c2)C(C(=O)O)C1 (racemic) [Compound 86]

Compound: N=C(N)c1cccc(CC(NS(=O)(=O)c2ccc3ccccc3c2)C(=O)N2CCCCC2C(=O)O)c1 (racemic) [Compound 83]
Ki [5]: 260 nM
Ki [1]: 34 µM
Ki [6]: 38 µM
pharmacokinetic properties ([11]; in words, compared with NAPAP): improved pharmacokinetic properties
Concentration in plasma ([11]; rat, 120 min): 0 ng/mL
Concentration in plasma ([11]; rat, 180 min): 0 ng/mL
concentration at 2 min ([11]; rat, plasma, iv, 1 mg/kg): 1900 ng/mL
concentration at 5 min ([11]; rat, plasma, iv, 1 mg/kg): 928 ng/mL
concentration at 10 min ([11]; rat, plasma, iv, 1 mg/kg): 496 ng/mL
concentration at 0.25 h ([11]; rat, plasma, iv, 1 mg/kg): 243 ng/mL
concentration at 0.5 h ([11]; rat, plasma, iv, 1 mg/kg): 150 ng/mL
concentration at 0.75 h ([11]; rat, plasma, iv, 1 mg/kg): 115 ng/mL
concentration at 1 h ([11]; rat, plasma, iv, 1 mg/kg): 85 ng/mL
concentration at 1.5 h ([11]; rat, plasma, iv, 1 mg/kg): 45 ng/mL
Ki [2]: 205 µM
Ki [7]: ~1 mM
concentration at 0.25 h [12]: 402 ng/mL
concentration at 0.5 h [12]: 620 ng/mL
concentration at 0.75 h [12]: 626 ng/mL
concentration at 1 h [12]: 568 ng/mL
concentration at 1.5 h [12]: 467 ng/mL
concentration at 2 h [12]: 415 ng/mL
concentration at 3 h [12]: 314 ng/mL
concentration at 4 h [12]: 297 ng/mL
Ki [9]: 32 µM
LD50 at 168 h ([13]; iv): 272 mg/kg
LD50 at 168 h ([13]; po): > 3000 mg/kg
concentration at 0.25 h [14]: 133 ng/mL
concentration at 0.5 h [14]: 79 ng/mL
concentration at 1 h [14]: 50 ng/mL
concentration at 1.5 h [14]: 37 ng/mL
concentration at 2 h [14]: 38 ng/mL
concentration at 3 h [14]: 25 ng/mL
concentration at 4 h [14]: 23 ng/mL
Ki [3]: > 1 mM
